The term IC50 denotes the concentration that gives 50% inhibition. Read a high IC50 as lower potency.

This is an account of results in patent publication US9802904B2, “Inhibitors of the USP1/UAF1 deubiquitinase complex and uses thereof” (The United States of America, as represented by the …, priority 2012, dated 2017).

The experiment has as its target USP1/UAF1 (Homo sapiens (Human), UniProt O94782). The experiment is described as follows: qHTS assay for USP1/UAF1 activity (fluorometric, ubiquitin-rhodamine110). The class given is biochemical. The conditions noted are these: USP1/UAF1 inhibition. The protocol:
USP1/UAF1 activity was monitored in a fluorometric assay using ubiquitin-rhodamine110. Enzymatic reactions were conducted in an assay buffer (50 mM HEPES, pH 7.8, 0.5 mM EDTA, 100 mM NaCl, 1 mM TCEP, 0.1 mg/mL BSA, and 0.01% Tween-20) that contained 1 nM USP1/UAF1. […] The plates were incubated for 15 min to attain equilibrium, and then the enzymatic reaction was initiated by dispensing 1 μL of Ub-Rho solution (150 nM final concentration). The plates were directly transferred to a ViewLux high-throughput CCD imager (PerkinElmer), where kinetic measurements of rhodamine fluorescence were acquired using a 480 nm excitation/540 nm emission filter set. […] All screening operations were performed on a fully integrated robotic system (Kalypsys Inc., San Diego, Calif.) as described elsewhere. Plates containing DMSO only were included approximately every 50 plates throughout the screen to monitor any systematic trend in the assay signal associated with reagent dispenser variation or decrease in enzyme specific activity. PubChem AID: 651605.
A general note: qHTS replaces the single test concentration by a dilution series.

Chain of USP1/UAF1 (O94782 whole entry): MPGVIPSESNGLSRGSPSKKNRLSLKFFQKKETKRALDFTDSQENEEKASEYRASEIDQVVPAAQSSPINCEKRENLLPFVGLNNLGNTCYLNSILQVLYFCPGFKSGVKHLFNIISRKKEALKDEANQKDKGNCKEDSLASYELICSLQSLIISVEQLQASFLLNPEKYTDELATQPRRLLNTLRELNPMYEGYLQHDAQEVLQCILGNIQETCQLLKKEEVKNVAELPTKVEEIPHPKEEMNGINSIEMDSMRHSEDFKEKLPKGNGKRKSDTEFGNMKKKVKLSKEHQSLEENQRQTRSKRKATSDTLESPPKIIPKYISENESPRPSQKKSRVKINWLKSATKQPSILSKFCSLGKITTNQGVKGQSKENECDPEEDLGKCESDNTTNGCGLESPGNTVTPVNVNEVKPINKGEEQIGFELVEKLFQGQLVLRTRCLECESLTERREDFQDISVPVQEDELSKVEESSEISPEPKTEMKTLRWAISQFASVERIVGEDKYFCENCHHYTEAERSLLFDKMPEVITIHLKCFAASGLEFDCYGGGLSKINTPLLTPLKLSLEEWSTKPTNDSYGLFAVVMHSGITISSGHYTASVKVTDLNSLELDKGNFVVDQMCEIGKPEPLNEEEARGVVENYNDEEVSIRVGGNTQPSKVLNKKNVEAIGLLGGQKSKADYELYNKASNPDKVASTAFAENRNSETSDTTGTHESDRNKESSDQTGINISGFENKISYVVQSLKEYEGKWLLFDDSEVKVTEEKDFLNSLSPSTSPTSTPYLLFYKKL
Chain of USP1/UAF1 (Q8TAF3 whole entry partner): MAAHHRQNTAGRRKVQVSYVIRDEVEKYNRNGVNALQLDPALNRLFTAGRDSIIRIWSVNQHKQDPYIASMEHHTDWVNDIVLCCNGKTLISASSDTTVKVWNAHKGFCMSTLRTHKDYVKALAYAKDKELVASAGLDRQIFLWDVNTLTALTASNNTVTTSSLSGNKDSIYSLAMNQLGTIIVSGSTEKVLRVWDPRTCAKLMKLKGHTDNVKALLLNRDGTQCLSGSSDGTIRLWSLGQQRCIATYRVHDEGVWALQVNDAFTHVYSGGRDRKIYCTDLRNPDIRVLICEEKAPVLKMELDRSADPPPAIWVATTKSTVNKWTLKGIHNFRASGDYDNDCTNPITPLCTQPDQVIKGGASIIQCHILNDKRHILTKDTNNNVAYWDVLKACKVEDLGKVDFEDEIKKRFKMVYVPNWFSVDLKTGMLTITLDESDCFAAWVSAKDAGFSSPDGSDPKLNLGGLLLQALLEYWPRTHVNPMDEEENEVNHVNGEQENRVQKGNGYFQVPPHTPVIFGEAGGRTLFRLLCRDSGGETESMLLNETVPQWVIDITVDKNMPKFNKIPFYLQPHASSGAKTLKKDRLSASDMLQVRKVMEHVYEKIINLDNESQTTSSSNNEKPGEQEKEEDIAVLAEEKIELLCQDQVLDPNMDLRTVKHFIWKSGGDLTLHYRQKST

In turn, `FC(F)(F)c1ccccc1-c1ncc2c(NCc3cccs3)cccc2n1` [Compound 1] returned an IC50 (Table 1 of Example 8) of 7900 nM.
On the same count and under the same terms, the result for `FC(F)(F)c1ccccc1-c1ncc2c(NCc3ccccc3)cccc2n1` [Compound 5] reads 2400 nM.
With `FC(F)(F)c1ccccc1-c1ncc2c(NCc3ccc(-c4ccccc4)cc3)cccc2n1` [Compound 6], inhibition (Table 1 of Example 8) was half-maximal at 3000 nM (IC50).
Turning to `FC(F)(F)c1ccccc1-c1ncc2c(NCc3ccc4c(c3)OCO4)cccc2n1` [Compound 7], half-maximal inhibition (Table 1 of Example 8) (IC50) required 5400 nM.
Still for that read-out and setting: then `COc1ccc(CNc2cccc3nc(-c4ccccc4C(F)(F)F)ncc23)cc1` [Compound 8], with 3000 nM; and `Fc1ccc(CNc2cccc3nc(-c4ccccc4C(F)(F)F)ncc23)cc1` [Compound 9], with 2400 nM; and `FC(F)(F)c1ccccc1-c1ncc2c(NCc3ccc(Cl)cc3)cccc2n1` [Compound 10], with 3000 nM.
The same measure, in the same setting: then `FC(F)(F)c1ccc(CNc2cccc3nc(-c4ccccc4C(F)(F)F)ncc23)cc1` [Compound 11], with 5400 nM.
On the same count and under the same terms, then `FC(F)(F)c1ccccc1-c1ncc2c(NCc3ccc(Cl)c(Cl)c3)cccc2n1` [Compound 12], with 11000 nM; and `Cc1ccc(CNc2cccc3nc(-c4ccccc4C(F)(F)F)ncc23)s1` [Compound 13], with 4300 nM; and `N#Cc1ccc(CNc2cccc3nc(-c4ccccc4C(F)(F)F)ncc23)cc1` [Compound 14], with 3400 nM.
Molecule `FC(F)(F)c1ccccc1-c1ncc2c(NCC#Cc3cccnc3)cccc2n1` [Compound 15] yielded a concentration for half-maximal inhibition (IC50) (Table 1 of Example 8) of 7600 nM.
Still for that read-out and setting: then `FC(F)(F)c1ccccc1-c1ncc2c(NCc3ccc(-c4ccc(Cl)c(Cl)c4)cc3)cccc2n1` [Compound 16], with 1400 nM.
Still for that read-out and setting: the result for `FC(F)(F)c1ccccc1-c1ncc2c(NCc3ccc(-c4ccc(Cl)cc4)cc3)cccc2n1` [Compound 17] reads 2200 nM; that for `FC(F)(F)c1ccccc1-c1ncc2c(NCc3ccc(-c4cccc(Cl)c4)cc3)cccc2n1` [Compound 18], 1700 nM.
Still for that read-out and setting: the result for `FC(F)(F)c1ccccc1-c1ncc2c(NCc3ccc(-c4ccncc4)cc3)cccc2n1` [Compound 19] reads 480 nM.
As for `FC(F)(F)c1ccccc1-c1ncc2c(NCc3ccc(-c4cccnc4)cc3)cccc2n1` [Compound 20], under “Table 1 of Example 8”, it took 610 nM to reach half-maximal inhibition (IC50).
Still for that read-out and setting: then `FC(F)(F)c1ccccc1-c1ncc2c(NCc3ccc(-c4cccnc4)cc3)cccc2n1` [Compound 21], with 1900 nM; and `FC(F)(F)c1cc(-c2ccc(CNc3cccc4nc(-c5ccccc5C(F)(F)F)ncc34)cc2)ccc1Cl` [Compound 22], with 2200 nM.
Same read-out and setting: then `FC(F)(F)c1ccccc1-c1ncc2c(NCc3ccc(N4CCOCC4)cc3)cccc2n1` [Compound 23], with 7600 nM; and `FC(F)(F)c1cc(-c2ccc(CNc3cccc4nc(-c5ccccc5C(F)(F)F)ncc34)cc2)ccn1` [Compound 24], with 4300 nM; and `FC(F)(F)c1ccccc1-c1ncc2c(NCc3ccc(C4CCCCC4)cc3)cccc2n1` [Compound 25], with 5800 nM.
Regarding `CC(C)c1ccccc1-c1nc(NCc2ccc(-c3ccccc3)cc2)c2sccc2n1` [Compound 50], the IC50 (Table 3) is 120 nM.
`CC(C)c1ccccc1-c1nc(NCc2ccc(-c3ccccc3)cc2)c2ccsc2n1` [Compound 51]: 240 nM corresponded to half-maximal inhibition (Table 3) (IC50).
Consider `CC(C)c1ccccc1-c1nc(NCc2ccc(-c3ccccc3)cc2)c2nc[nH]c2n1` [Compound 52], for which, under “Table 3”, the IC50 was determined as 2120 nM.
In turn, `CC(C)c1ccccc1-c1nc2c(c(NCc3ccc(-c4ccccc4)cc3)n1)CCC2` [Compound 53] yielded an IC50 (Table 3) of 1500 nM.
Still for that read-out and setting: then `CC(C)c1ccccc1-c1nc(NCc2ccc(-c3ccccc3)cc2)c2cccn2n1` [Compound 54], with 220 nM; and `CC(C)c1ccccc1C1=NC2CNCCC2C(NCc2ccc(-c3ccccc3)cc2)=N1` (stereo not drawn) [Compound 55], with 480 nM.
Still for that read-out and setting: the result for `CC(C)c1ccccc1C1=NC2CCCC2C(NCc2ccc(-c3ccccc3)cc2)=N1` (stereo not drawn) [Compound 56] reads 140 nM.
On the same count and under the same terms, the result for `CC(C)c1ccccc1C1=NC2C=COC2C(NCc2ccc(-c3ccccc3)cc2)=N1` (stereo not drawn) [Compound 57] reads 150 nM.
